A short description of data set [1]: Cetrorelix measurement in maternal and fetal brain (nano-HPLC-HRMS). Format: in vivo, mouse. The note with it: dams i.p. 0.5 mg/Kg E16.5-E18.5; brains at E19.5. As for the experimental part:
Timed-pregnant adult (3-4 months) C57BL6/J (B6) (Charles River, USA) dams were injected daily intraperitoneally (i.p.) from embryonic day (E) 16.5 to 18.5 with 200 μL of a solution containing respectively: 1) 0.01M phosphate buffered saline (PBS, pH 7.4, prenatal control-treated), 2) PBS with 0.5 mg Kg^−1 of the GnRH antagonist, cetrorelix acetate (Sigma, Cat #C5249; GnRH antag-treated). At E19.5, dams were anesthetized with ketamine/xylazine, and sacrificed by cervical dislocation. Dams' brains and fetal brains were collected, snap-frozen in liquid nitrogen and stored at −80° C. until nano-HPLC-HRMS experiments.
Murine maternal and embryo brain samples were prepared adapting the procedure described (Wang et al., 2014, Vol. 1345: 98-106). Briefly, the brains were weighted, homogenized with 1% formic acid in cold acetonitrile and incubated for 15 minutes at −20° C. After centrifugation, the supernatant was freeze-dried and reconstituted with 3% acetic acid and 1% trifluoroacetic acid (TFA). all of the solvents were from Sigma-Aldrich Merck (Milan, Italy). […]
The column was equipped with a nanoESl source and the capillary voltage was 2000 V in positive ion mode. […] High resolution spectra were acquired with a resolution of 60000 (FWHM) and the mass accuracy of recorded ions (vs. calculated) was ±5 ppm units (without internal calibration).

The test system of data set [2] is pregnant mice. In words: LH, T, E2 and P measurement in pregnant mice at E19.5. Format: in vivo, mouse. On the procedure:
PAMH+GnRH antag. (FIG. 3D) Schematic representation of tail-tip blood sampling in adult diestrus female mice (3-4 months old). (FIG. 3E) Tail blood was collected every 10 min for 2 h and LH measured from 10 a.m-12 p.m in adult (P60) diestrus females (Control, n=8; PAMH, n=10; PAMH+GnRH antag, n=9; One-way ANOVA and Tukey's multiple comparison post hoc test, F(2,24)=57.06, *P<0.05, ***P<0.0001). Bars from left to right: Control, PAMH, PAMH+GnRH antag. (FIGS. 2F-1, 2F-2, 2F-3) Representative graphs for LH pulsatility over 2-hr in one female adult (P60) mouse of each treatment. Asterisks in (FIG. 3F) indicate the number of LH pulses/2-hr. (FIG. 3G) Mean circulating testosterone and LH levels were analyzed in pregnant PBS-treated (n=4) and AMH-treated (n=4) dams at embryonic day (E) 19.5 of gestation. […] Values are expressed as relative to the mean of each treatment. All values are expressed as mean±s.e.m. […]
For the analysis of circulating LH and T levels, animals were decapitated and trunk blood from adult (P60) animals and P0 pups (1-2 hrs after birth) were collected in sterile Eppendorf tubes and left on ice until centrifugation. […] LH levels were determined by a sandwich ELISA, as described previously (Vidal et al., 2012, PloS one, Vol. 7: e39001), using the mouse LH-RP reference provided by A. F. Parlow (National Hormone and Pituitary Program, Torrance, CA). […]

Where a SMILES comes first, the peptide text is derived from it. [ ]: non-standard residue; d: D form. dPhe(4-Cl) = N[C@H](Cc1ccc(Cl)cc1)C(=O)O; d2Nal = N[C@H](Cc1ccc2ccccc2c1)C(=O)O; dCit = NC(=O)NCCC[C@@H](N)C(=O)O; d3Pal = N[C@H](Cc1cccnc1)C(=O)O

`CC(=O)N[C@H](Cc1ccc2ccccc2c1)C(=O)N[C@H](Cc1ccc(Cl)cc1)C(=O)N[C@H](Cc1cccnc1)C(=O)N[C@@H](CO)C(=O)N[C@@H](Cc1ccc(O)cc1)C(=O)N[C@H](CCCNC(N)=O)C(=O)N[C@@H](CC(C)C)C(=O)N[C@@H](CCCNC(=N)N)C(=O)N1CCC[C@H]1C(=O)N[C@H](C)C(N)=O` [Cetrorelix acetate, Ac-D-2Nal-D-Phe(4-Cl)-D-3Pal-Ser-Tyr-D-Cit-Leu-Arg-Pro-D-Ala-NH2] (Ac-[d2Nal][dPhe(4-Cl)][d3Pal]SY[dCit]LRP[dA]-NH2): the “access to maternal and fetal brain” value in data set [1] was “can access the maternal as well as the fetal brain”. Moreover, in data set [2] (dams i.p. AMH + GnRH antag E16.5-E18.5), the “circulating T in dams” value is given as “very low T levels”. Moreover, the “AMH-induced increase of LH in pregnant mice” value in data set [2] (dams i.p. AMH + GnRH antagonist E16.5-E18.5) is listed as “prevented”.

Values taken from patent US12208130B2, “Treatment of women affected with polycystic ovary syndrome” (INSTITUT NATIONAL DE LA SANTE ET DE LA RECHERCHE MEDICALE …, priority 2017, dated 2025).
